In brackets after ≈: the same amount, converted by molar mass.
How the values were obtained:
[1] = tested on: human mitochondrial ribosomes; assay: in-vitro translation assay, human mitochondrial (human chimeric) ribosomes; assay type: biochemical
Source text: (§1) IC50 values for bacterial, human chimeric, and rabbit reticulocyte ribosomes have been determined by in-vitro translation assays as described previously (Proc. Nat. Ac. Sci USA 2012, 109(27):10984-10989).
(§2) Minimal inhibitory concentrations (MICs, […]) against clinical isolates from Institute of Medical Microbiology, Univ. Zurich, and the IC50 values for bacterial, human mitochondrial and human cytosolic ribosomes are indicated.

[2] = tested on: AG042 MRSA AAC(6′)-I ANT(4′)-I APH(2′); assay: Antibacterial activity, clinical isolate AG042; assay type: cell-based; design: unit not given here
Source text: (§3) Minimal inhibitory concentrations (MIC) have been determined by broth microdilution assays (CLSI. Methods for Dilution Antimicrobial Susceptibility Tests for Bacteria That Grow Aerobically; Approved Standard—Tenth Edition. CLSI document M07-A10. Wayne, Pa.: Clinical and Laboratory Standards Institute; 2015.).
(§4) Table 4 and 5 show the antibacterial activity of the compounds of the invention against bacterial reference strains (table 4) and against representative clinical isolates (table 5).

AG055 E. coli WT = assay: Antibacterial activity, clinical isolate AG055; assay type: cell-based; design: unit not given here
Source text: as §3, §4

[3] = tested on: AG212, Escherichia coli ATCC25922; assay: MIC reference strain AG212; assay type: cell-based; details: reference strain ATCC25922
Source text: as §3, §4
(§5) Legend to Tables: GEN, gentamicin; AMK, amikacin; PLZ, plazomicin; APR, apramycin; AG212, Escherichia coli ATCC25922; AG215, Klebsiella pneumonia; AG220, Pseudomonas aeruginosa ATCC27853; AG225, Acinetobacter baumannii pittii; AG290, Enterobacter cloacae; […], Mycobacterium smegmatis. MICs for AG192 have been determined in the presence of 0.5 μg/mL of ampicillin in the medium to mimic the synergistic effect of aminoglycoside and β-lactam antibiotics combination therapy in the treatment of Enterococcus infections in humans.

[4] = tested on: Engineered E. coli pH430 WT; assay: Activity, engineered E. coli pH430 WT; assay type: cell-based; design: unit not given here; details: wild type
Source text: as §3

[5] = tested on: clinical isolates carrying APH(3′)-VI; assay: MIC broth microdilution, APH(3′)-VI; assay type: cell-based; details: IMM Univ. Zurich
Source text: as §3, §2

[6] = tested on: clinical isolates carrying APH(3′)-I; assay: MIC broth microdilution, APH(3′)-I; assay type: cell-based; details: IMM Univ. Zurich
Source text: as §3, §2

[7] = tested on: clinical isolates carrying AAC(3)-IV; assay: MIC broth microdilution, AAC(3)-IV; assay type: cell-based
Source text: as §3, §2
(§6) Minimal inhibitory concentrations (μg/ml) against clinical isolates from Institute of Medical Microbiology, Univ. Zurich, and the IC50 values for bacterial, human mitochondrial and human cytosolic ribosomes are indicated.
(§7) The Minimal inhibitory concentrations (MICs, μg/ml) against clinical isolates from Institute of Medical Microbiology, Univ Zurich, and the IC50 values for bacterial, human mitochondrial and human cytosolic ribosomes are indicated.

[8] = tested on: Engineered E. coli pH426 rmtC; assay: Activity against G1405-methylated 16S-rRNA, E. coli pH426 rmtC; assay type: cell-based
Source text: as §3

[9] = tested on: human cytosolic ribosomes; assay: in-vitro translation assay, human cytosolic ribosomes; assay type: biochemical
Source text: as §1, §2

AG032 P. aer. APH(3′)-II = assay: Antibacterial activity, clinical isolate AG032; assay type: cell-based; design: unit not given here
Source text: as §3, §4

[10] = tested on: Engineered E. coli AG103 armA; assay: Activity against G1405-methylated 16S-rRNA, E. coli AG103 armA; assay type: cell-based
Source text: as §3

[11] = tested on: Engineered E. coli pH425 rmtB; assay: Activity against G1405-methylated 16S-rRNA, E. coli pH425 rmtB; assay type: cell-based
Source text: as §3

[12] = tested on: AG033 P. aer. APH(3′)-II AAC(6′)-I; assay: Antibacterial activity, clinical isolate AG033; assay type: cell-based; design: unit not given here
Source text: as §3, §4

AG003 E. coli AAC(3)-II = assay: Antibacterial activity, clinical isolate AG003; assay type: cell-based; design: unit not given here
Source text: as §3, §4

AG038 MRSA = assay: Antibacterial activity, clinical isolate AG038; assay type: cell-based; design: unit not given here
Source text: as §3, §4

[13] = tested on: AG220, Pseudomonas aeruginosa ATCC27853; assay: MIC reference strain AG220; assay type: cell-based
Source text: as §3, §4, §5

AG173 E. coli AAC(3)-IV = assay: Antibacterial activity, clinical isolate AG173; assay type: cell-based
Source text: as §3, §4

AG163 E. coli APH(3′)-I = assay: Antibacterial activity, clinical isolate AG163; assay type: cell-based; design: unit not given here
Source text: as §3, §4

[14] = tested on: Engineered E. coli pH424 armA; assay: Activity against G1405-methylated 16S-rRNA, E. coli pH424 armA; assay type: cell-based
Source text: as §3

AG031 P. aer. APH(3′)-II = assay: Antibacterial activity, clinical isolate AG031; assay type: cell-based; design: unit not given here
Source text: as §3, §4

ATCC19977 M. abcessus = assay: MIC reference strain ATCC19977; assay type: cell-based
Source text: as §3, §4

AG001 E. coli WT = assay: Antibacterial activity, clinical isolate AG001; assay type: cell-based; design: unit not given here
Source text: as §3, §4

[15] = tested on: AG290, Enterobacter cloacae; assay: MIC reference strain AG290; assay type: cell-based; details: reference strain
Source text: as §3, §4, §5

[16] = tested on: AG215, Klebsiella pneumonia; assay: MIC reference strain AG215; assay type: cell-based; details: reference strain
Source text: as §3, §4, §5

bacterial ribosomes = assay: in-vitro translation assay, bacterial ribosomes; assay type: biochemical
Source text: as §1, §2

[17] = tested on: clinical isolates carrying APH(3′)-II; assay: MIC broth microdilution, APH(3′)-II; assay type: cell-based; details: clinical isolates, IMM Univ. Zurich; APH(3′)-II; read-out: MIC APH(3′)-II
Source text: as §3, §2

[18] = tested on: AG039 MRSA AAC(6′)-I ANT(4′)-I; assay: Antibacterial activity, clinical isolate AG039; assay type: cell-based
Source text: as §3, §4

[19] = tested on: Engineered E. coli pH427 rmtF; assay: Activity against G1405-methylated 16S-rRNA, E. coli pH427 rmtF; assay type: cell-based
Source text: as §3

[20] = tested on: AG225, Acinetobacter baumannii pittii; assay: MIC reference strain AG225; assay type: cell-based; details: reference strain
Source text: as §3, §4, §5

isolates carrying apmA = assay: MIC broth microdilution, apmA; assay type: cell-based; details: apmA resistance gene
Source text: as §3, with “2015.). […]” for “2015.).”
as §6, §7

WT clinical isolates = assay: MIC broth microdilution, WT; assay type: cell-based; details: clinical isolates, IMM Univ. Zurich; wild type
Source text: as §3, §2, §6, §7

[21] = tested on: A baum. AG227 APH(3′)-I armA; assay: Activity against G1405-methylated 16S-rRNA, clinical isolate AG227; assay type: cell-based
Source text: as §3

[22] = tested on: SZ380, Mycobacterium smegmatis; assay: MIC reference strain SZ380; assay type: cell-based; details: reference strain
Source text: as §3, §4, §5

[23] = tested on: Enterob. AG302 AAC(3)-II AAC(6′)-I rmtC; assay: Activity against G1405-methylated 16S-rRNA, clinical isolate AG302; assay type: cell-based
Source text: as §3

[24] = tested on: E. coli AG153 AAC(3)-II APH(3′)-II rmtB; assay: Activity against G1405-methylated 16S-rRNA, clinical isolate AG153; assay type: cell-based; design: unit not given here
Source text: as §3

[25] = tested on: K. pneum. AG269 AAC(3)-II AAC(6′)-I rmtB; assay: Activity against G1405-methylated 16S-rRNA, clinical isolate AG269; assay type: cell-based
Source text: as §3

SMILES	IC50 [1] [µM]	Antibacterial activity AG042 MRSA AAC(6′)-I ANT(4′)-I APH(2′) [2]	Antibacterial activity AG055 E. coli WT (AG055 E. coli WT)	Activity E. coli pH430 WT [4]	Activity E. coli pH426 rmtC [8]	IC50 [9] [µM]	Antibacterial activity AG032 P. aer. APH(3′)-II (AG032 P. aer. APH(3′)-II)	Activity E. coli AG103 armA [10]	Activity E. coli pH425 rmtB [11]	Antibacterial activity AG033 P. aer. APH(3′)-II AAC(6′)-I [12]	Antibacterial activity AG003 E. coli AAC(3)-II (AG003 E. coli AAC(3)-II)	Antibacterial activity AG038 MRSA (AG038 MRSA)	Antibacterial activity AG173 E. coli AAC(3)-IV (AG173 E. coli AAC(3)-IV)	Antibacterial activity AG163 E. coli APH(3′)-I (AG163 E. coli APH(3′)-I)	Activity E. coli pH424 armA [14]	Antibacterial activity AG031 P. aer. APH(3′)-II (AG031 P. aer. APH(3′)-II)	Antibacterial activity AG001 E. coli WT (AG001 E. coli WT)	IC50 (bacterial ribosomes) [µM]	Antibacterial activity AG039 MRSA AAC(6′)-I ANT(4′)-I [18]	Activity E. coli pH427 rmtF [19]	also measured
CNC1C(OC2OC(CO)C(N)C(O)C2O)OC2CC(N)C(OC3C(N)CC(N)C(O)C3OC3OC(CO)C(O)C3O)OC2C1O [DC131, 5-O—(β-D-Ribefuranosyl) apramycin]	295	64	16-32	4	4	319	64-128	1	4	128	16	64	16-32	8-16	2	64-128	16	0.11	64	4	MIC ([3]; Escherichia coli, read-out: MIC AG212 E. coli): 8 µg/mL; MIC [5]: 4 µg/mL (≈ 5.96 µM); MIC [6]: 64 µg/mL (≈ 95.3 µM); activity against the IMM clinical isolates carrying the gene for AAC(3)-IV [7]: no activity; MIC ([7]; clinical isolates, IMM Univ. Zurich, AAC(3)-IV, read-out: MIC AAC(3)-IV): > 32 µg/mL; MIC ([13]; Pseudomonas aeruginosa, ATCC27853, reference strain ATCC27853, read-out: MIC AG220 P. aeruginosa): 64 µg/mL; MIC (ATCC19977 M. abcessus; read-out: MIC ATCC19977 M. abcessus): 16 µg/mL (≈ 23.8 µM); MIC ([15]; Enterobacter cloacae, read-out: MIC AG290 E. cloacae): 4 µg/mL; MIC ([16]; Klebsiella pneumoniae, read-out: MIC AG215 K. pneumonia): 2 µg/mL; MIC [17]: 8 µg/mL (≈ 11.9 µM); MIC ([20]; Acinetobacter baumannii, read-out: MIC AG225 A. baumannii): 16 µg/mL
CNC1C(OC2OC(CO)C(N)C(O)C2O)OC2CC(N)C(OC3C(N)CC(NC(=O)C(O)CCN)C(O)C3O)OC2C1O (centres unmarked) [DC176]	166	8	8	2	4	326	32	0.25-0.5	2	>32	4	4-8	2-4	4	2	16	4	0.11	4-8	4	MIC apmA (isolates carrying apmA): 16 µg/mL (≈ 25 µM); MIC AG212 E. coli [3]: 2 to 4 µg/mL; MIC WT (WT clinical isolates): 2 µg/mL (≈ 3.12 µM); MIC AAC(3)-IV ([7]; clinical isolates, IMM Univ. Zurich, AAC(3)-IV): 4 µg/mL (≈ 6.24 µM); Activity A baum. AG227 APH(3′)-I armA [21]: 2; MIC AG220 P. aeruginosa ([13]; reference strain ATCC27853): 16 µg/mL; MIC SZ380 M. smegmatis [22]: 0.5 µg/mL; Activity Enterob. AG302 AAC(3)-II AAC(6′)-I rmtC [23]: 2; MIC ATCC19977 M. abcessus (ATCC19977 M. abcessus; reference strain): 2 µg/mL (≈ 3.12 µM); MIC AG290 E. cloacae [15]: 4 µg/mL; MIC AG215 K. pneumonia [16]: 2 µg/mL; Activity E. coli AG153 AAC(3)-II APH(3′)-II rmtB [24]: 4; Activity K. pneum. AG269 AAC(3)-II AAC(6′)-I rmtB [25]: 2; MIC AG225 A. baumannii [20]: 8 µg/mL

From patent publication US11485751B2, “Apramycin derivatives” (WAYNE STATE UNIVERSITY, priority 2017, dated 2022)
